# Patent publication US11542239B2, “Elagolix sodium compositions and processes” (AbbVie Inc., priority 2018, dated 2023)
# Tests used:
# Type in all cases: physicochemical
# [1] = Flow properties, Schulze ring shear tester (flow function coefficient); details: isolated amorphous elagolix sodium powder, ffc=σ/fc
# Method: Flow properties of each sample were characterized using a Schulze ring shear tester RST-XS (Dietmar Schulze Schuttgutmesstechnik, Wolfenbiittel, Germany). A standard annular cell of a cross-sectional area of 24 cm^2 and a volume of 30 cm^3 is used to measure the yield loci. All experiments were performed under ambient conditions immediately after the sample was removed from the sample container. During each measurement, the powder sample was first pre-sheared under a pre-consolidation stress of 1 kPa until a steady-state was reached. The pre-sheared powder was then subjected to shear under four normal stress levels of […] to obtain the yield locus (plot of shear stress at failure as a function of the normal stress). Between each shear points, the sample was pre-consolidated at 1 kPa. From the yield locus, the major principle stress (σ) and unconfined yield strength (fc) were derived by drawing two critical Mohr stress circles with the software RST-CONTROL 95 (Dietmar Schulze Schuttgiit-messtechnik, Wolfenbiittel, Germany). The major principle stress (σ) was obtained from the Mohr stress circle which is tangential to the yield locus and intersects at the point of normal and shear stresses at steady state flow. The unconfined yield strength (fc) was obtained from the Mohr stress circle which is tangential to the yield locus and runs through the origin. Flow function coefficient (ffc=σ/fc) was used to characterize the flow of the powder sample.
# [2] = Dry glass transition temperature of amorphous form
# [3] = Bulk density in a graduated cylinder; details: isolated amorphous elagolix sodium powder
# Method: The bulk density of the sample was obtained by measurement in a graduated cylinder. A 50 mL graduated cylinder (readable to 1 mL) was used in all measurement. First, the tared weight of the cylinder was obtained with a balance (readable to ±0.01 g). Sufficient amount of sample was then transferred into the cylinder, gently to avoid compaction of the sample, to a volume between 30 and 50 mL. The total weight of the sample and cylinder was then measured with the balance (readable to ±0.01 g), and the net sample weight was calculated. The bulk density is the weight of the sample divided by the apparent volume (to the nearest graduated unit).
# [4] = Particle size distribution by laser diffraction (wet dispersion); details: isolated amorphous elagolix sodium powder
# Method: Particle size distribution was measured by laser diffraction using a Malvern Mastersizer 2000S (Malvern Panalytical Ltd., Malvern, United Kingdom) in the wet dispersion mode. The liquid dispersion accessory was first filled with a solution of 0.025% w/v lecithin in HPLC n-heptane. After laser background intensity was measured, approximately 40 mg of sample was added directly to the liquid dispersion accessory to obtain a target laser obscuration between 5 and 22%. Particle size distribution measurement was started immediately upon addition of the sample. The following method parameters were used: Calculation theory—Mie; Measurement model—general purpose; Measurement sensitivity—normal; Dispersant refractive index—1.39; Background time—30 s; Measurement time—30 s; Stirrer speed—1500 rpm; Measurement cycle—1.
# [5] = BET specific surface area from nitrogen adsorption isotherm; details: isolated amorphous elagolix sodium powder, precipitation/isolation conditions vary per example
# Method: The BET (Brunauer, Emmett and Teller) specific surface area was determined from nitrogen adsorption isotherm at 77° K using a surface area analyzer (Tristar 3020, Micromeritics, Norcross, Ga.). A sample of approximately 1-2 g was first outgassed under vacuum for 2 hours at 50° C. prior to nitrogen adsorption experiment. The multipoint measurement method was used according to USP <846>. The quantity adsorbed was measured between 0.05 and 0.3 relative pressure. A minimum of 5 data points between this pressure range was determined to obtain the specific surface area using the BET equation.
compound,measurement,setting,value
"COc1cccc(-c2c(C)n(Cc3c(F)cccc3C(F)(F)F)c(=O)n(C[C@H](NCCCC(=O)[O-])c3ccccc3)c2=O)c1F.[Na+] [Compound (I), sodium 4-({(1R)-2-[5-(2-fluoro-3-methoxyphenyl)-3-{[2-fluoro-6-(trifluoromethyl)phenyl]methyl}-4-methyl-2,6-dioxo-3,6-dihydropyrimidin-1(2H)-yl]-1-phenylethyl}amino)butanoate]",flow function coefficient (ffc),[1]; listed as Example 14,1.8
same,flow function coefficient (ffc),[1]; listed as Example 15,2.8
same,flow function coefficient (ffc),[1]; listed as Example 17,1.2
same,flow function coefficient (ffc),[1]; listed as Example 18,6.8
same,dry glass transition temperature (Tg),[2],about 108 °C
same,bulk density,[3]; listed as Example 17,0.17 g/mL
same,bulk density,[3]; listed as Example 18,0.33 g/mL
same,volume-averaged particle size Dv10,[4]; listed as Example 14,9 μm
same,volume-averaged particle size Dv10,[4]; listed as Example 15,17 μm
same,volume-averaged particle size Dv10,[4]; listed as Example 17,6 μm
same,volume-averaged particle size Dv10,[4]; listed as Example 18,204 μm
same,specific surface area,[5]; listed as Example 14,10.4 m^2/g
same,specific surface area,[5]; listed as Example 15,49.0 m^2/g
same,specific surface area,[5]; listed as Example 16,0.3 m^2/g
same,specific surface area,[5]; listed as Example 17,35.3 m^2/g
same,specific surface area,[5]; listed as Example 18,32.2 m^2/g
